Measurements reported in patent US20200172975A1, “Cell-Free microRNA Signatures of Pancreatic Islet Beta Cell Death” (THE UNIVERSITY OF SYDNEY, priority 2017, published 2020).

Tested on: new-onset T1D individuals
Assay: Clinical study of ingested interferon-α: residual C-peptide and microRNA signature of beta cell death
Type: in vivo, human
Text: In order to assess whether microRNAs could predict treatment efficacy, microRNAs were profiled from a de-identified clinical study set of samples from new-onset T1D individuals. These individuals received oral interferon-α at two doses as a therapy to preserve beta cell mass. The effect of ingested interferon-α on residual C-peptide (a measure of beta cell mass) at one year following treatment with 5000 units, 30,000 units or placebo was investigated.
Treatment groups are shown on the X-axis. The remaining beta-cell function measured as circulating C-peptide levels at 1 year (relative to baseline) are plotted on Y-axis (adjusted means, vertical bars denote 0.95 confidence intervals).

interferon-α
remaining beta-cell function measured as circulating C-peptide levels at 1 year (relative to baseline) (30,000 units ingested IFN treatment group as compared to the Control group, FIG. 13): significant preservation of islet beta cell mass | miRNA signature of beta cell death (abundance) (30,000 units ingested IFN treatment group, 12 months from study baseline): lower abundance | microRNA signature of beta cell death (individuals showing the highest preservation of beta-cell mass at one year of treatment, FIG. 14): decreased
